Measurements reported in patent US20040198731A1, “Aminoalkyl-substituted aromatic bicyclic compounds, methods for their preparation and their use as pharmaceuticals” (Aventis Pharma Deutschland GmbH, priority 2001, published 2004).

Tests used:
female NMRI mice = experiment: Anorectic action: cumulative milk consumption after oral administration; type: in vivo; conditions: for cumulative milk consumption by treated animals: feed removed 17 h, monitored for 7 hours, N=5; for Reduction in cumulative milk consumption as % of the control: versus vehicle-treated control animals
Procedure: The anorectic action was tested on female NMRI mice. After removal of feed for 17 hours, the preparation to be tested was administered by gavage. The animals were housed singly and, with free access to drinking water, they were offered evaporated milk 30 minutes after administration of the preparation. The consumption of evaporated milk was determined and the general behavior of the animals were monitored every half an hour for 7 hours. The measured milk consumption was compared to that of vehicle-treated control animals.

human MCH receptor = target: T1, human MCH receptor (Homo sapiens, UniProt Q99705); experiment: Functional measurement of cellular calcium flow (FLIPR) in recombinant HEK293 cells expressing human MCH receptor; type: cell-based; conditions: cellular assay, calcium flow after addition of agonist (MCH), HEK293 (PEAK Stable Cells) expressing human MCH receptor
T1 construct: expressed in transfected cells
T1 sequence (Q99705 whole entry): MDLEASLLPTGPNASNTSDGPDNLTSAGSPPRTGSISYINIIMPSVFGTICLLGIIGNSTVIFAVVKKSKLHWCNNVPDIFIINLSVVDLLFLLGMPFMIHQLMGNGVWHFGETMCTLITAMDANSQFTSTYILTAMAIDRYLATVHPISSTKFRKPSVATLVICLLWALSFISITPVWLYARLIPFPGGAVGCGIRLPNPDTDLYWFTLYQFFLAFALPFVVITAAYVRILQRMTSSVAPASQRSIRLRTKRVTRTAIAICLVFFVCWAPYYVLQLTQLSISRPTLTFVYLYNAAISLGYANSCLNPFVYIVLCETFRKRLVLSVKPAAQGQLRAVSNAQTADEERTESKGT
Excerpt: In two simultaneously published articles in Nature (Nature, 400:261-264, 1999; Nature, 400:265-269, 1999, see enclosure), two groups separately described a highly specific receptor for melanin-concentrating hormone (MCH). MCH takes over important functions in the control of food intake. Compounds acting on the MCH receptor therefore have anorectic action and are suitable for the treatment of obesity. The test for anorectic action of the inventive compounds of formula I was therefore carried out as follows.
Functional measurements for determination of IC50
Cloning of the cDNA for human MCH receptor, preparation of a recombinant HEK293 cell line expressing human MCH receptor and functional measurements with said recombinant cell line were carried out according to the description by Audinot et al. (J. Biol. Chem., 276, 13554-13562, 2001). In contrast to the reference, however, plasmid pEAK8 from EDGE Biosystems (USA) was used for constructing the expression vector. A transformed HEK cell line named “PEAK Stable Cells” (likewise from EDGE Biosystems) served as host for transfection. The functional measurements of cellular calcium flow, after addition of agonists (MCH), in the presence of the ligand of the invention was carried out with the aid of the FLIPR instrument from Molecular Devices (USA), using the manufacturer's protocols.

| SMILES | IC50 (human MCH receptor) [nM] | other results |
| --- | --- | --- |
| CN(C)CCn1ccc2cc(NC(=O)Nc3ccc(-c4ccc(F)cc4)cc3)ccc21 [Example 81, 1-[1-(2-Di-methylaminoethyl)-1H-in-dol-5-yl]-3-(4′-fluoro-biphenyl-4-yl)urea] | 2690 | – |
| CN(C)CCn1ccc2cc(NC(=O)Nc3ccc(Oc4cccc(C(F)(F)F)c4)cc3)ccc21 [Example 86, 1-[1-(2-Di-methylaminoethyl)-1H-in-dol-5-yl]-3-[4-(3-tri-fluoromethyl-phenoxy)phenyl]urea] | 2780 | – |
| CN(C)CCn1ccc2cc(NC(=O)Nc3ccc(Oc4ccccc4Cl)cc3)ccc21 [Example 105, 1-[4-(2-Chloro-phenoxy)-phenyl]-3-[1-(2-di-methylaminoethyl)-1H-in-dol-5-yl]urea] | 1000 | – |
| Cc1cccc(Oc2ccc(NC(=O)Nc3ccc4c(ccn4CCN(C)C)c3)cc2)c1 [Example 107, 1-[1-(2-Di-methylaminoethyl)-1H-in-dol-5-yl]-3-(4-m-tolyl-oxyphenyl)urea] | 1000 | – |
| Cc1ccccc1Oc1ccc(NC(=O)Nc2ccc3c(ccn3CCN(C)C)c2)cc1 [Example 108, 1-[1-(2-Di-methylaminoethyl)-1H-in-dol-5-yl]-3-(4-o-tolyl-oxyphenyl)urea] | 430 | – |
| COc1cccc(Oc2ccc(NC(=O)Nc3ccc4c(ccn4CCN(C)C)c3)cc2)c1 [Example 109, 1-[1-(2-Dimethyl-aminoethyl)-1H-indol-5-yl]-3-[4-(3-meth-oxyphenoxy)-phenyl]urea] | 1290 | – |

The next compounds have a lower IC50 (human MCH receptor) than those just listed; values first:

| IC50 (human MCH receptor) [nM] | SMILES | other results |
| --- | --- | --- |
| 150 | CN(C)CCn1ccc2cc(NC(=O)Nc3ccc(Oc4ccccc4)cc3)ccc21 [Example 1, 1-[1-(2-Dimethylaminoethyl)-1H-indol-5-yl]-3-(4-phenoxyphenyl)urea] | cumulative milk consumption by treated animals (female NMRI mice; oral dose 30 mg/kg by gavage): 5/2.28 mL; Reduction in cumulative milk consumption as % of the control (female NMRI mice; oral dose 30 mg/kg by gavage): 30% |
| 130 | CN(C)CCn1cnc2cc(NC(=O)Nc3ccc(Oc4ccccc4)cc3)ccc21 [Example 4, 1-[1-(2-Dimethylaminoethyl)-1H-benzoimidazol-5-yl]-3-(4-phenoxyphenyl)urea] | cumulative milk consumption by treated animals (female NMRI mice; oral dose 10 mg/kg by gavage): 5/2.74 mL; Reduction in cumulative milk consumption as % of the control (female NMRI mice; oral dose 10 mg/kg by gavage): 38% |
| 400 | Cc1ccc(Oc2ccc(NC(=O)Nc3ccc4c(ccn4CCN(C)C)c3)cc2)cc1 [Example 84, 1-[1-(2-Di-methylaminoethyl)-1H-in-dol-5-yl]-3-(4-p-tolyl-oxyphenyl)urea] | – |
| 200 | CN(C)CCn1ccc2cc(NC(=O)Nc3ccc(Oc4ccccc4)nc3)ccc21 [Example 106, 1-[1-(2-Di-methylaminoethyl)-1H-in-dol-5-yl]-3-(6-phenoxy-pyridin-3-yl)urea] | – |
